In the NIST ThermoML archive (doi:10.1021/je301301j):

Assay: molar heat capacity at constant pressure; xn = mol fraction of the nth substance listed
Conditions: 293.15 K, Liquid, Flow calorimetry

C=CCCCC [hex-1-ene] + CCCCO
molar heat capacity at constant pressure [J/K/mol]
Conditions	x2 = 0	x2 = 0.1001	x2 = 0.2	x2 = 0.3002	x2 = 0.3999	x2 = 0.5018	x2 = 0.5997	x2 = 0.7002	x2 = 0.7999	x2 = 0.9
100 kPa	179.2	190.4	191.6	192.1	188.5	187.6	184.9	182.6	178.7	176.2
5000 kPa	174.9	187.5	188.7	189	186.7	185.6	183.1	180	177.5	175.7
10000 kPa	172.7	184.7	186.3	186.4	184	183.6	180.6	178.7	175.1	174
15000 kPa	169.9	182.6	183.1	185.1	182.5	182.1	178.5	177.1	173.8	172.1
20000 kPa	168.1	178.4	179.9	182.8	180.1	179.8	176.1	175.8	172.4	170.7
25000 kPa	165.7	176.7	178	180.1	178.8	178	174.8	173.5	170.7	169.3
